Source: patent publication US8716293B2, “Macrocyclic integrase inhibitors” (Janssen R&D Ireland, priority 2010, dated 2014)

Experiments:
HIV-1 SDM strain N155H = assay: cell-based HIV-1 replication assay in MT4-LTR-EGFP cells, N155H mutant; conditions: fold change in activity against N155H mutant compared to wild type HIV
Excerpt: (§1) MT4-LTR-enhanced green fluorescent protein (EGFP) cells were obtained by transfecting MT4 cells with a selectable construct encompassing the coding sequences for the HIV LTR as a promoter for the expression of EGFP and subsequent selection of permanently transfected cells. MT4-cytomegalovirus (CMV)-EGFP cells were obtained by selection for permanently transformed MT4 cells with a CMV-EGFP reporter gene. Cell lines were maintained in RPMI 1640 medium supplemented with 10% heat-inactivated fetal calf serum, 2 mM L-glutamine, 0.1% NaHCO3, and antibiotics (0.02% gentamicin and 0.8% G418) and incubated in a humidified incubator with a 5% CO2 atmosphere at 37° C.
(§2) N155H and Q148R mutant Integrase coding sequences were constructed in the pUC19-5′HXB2D vector (XbaI-SalI fragment of pHXB2D), containing the HIV-1 clone HXB2D IN coding sequence, by using a QuikChange site-directed mutagenesis kit (Stratagene, La Jolla, Calif.) and HPLC-purified primers (Genset Oligos, La Jolla, Calif.). Altered plasmid sequences were confirmed by dideoxyribose sequencing. For generation of site-directed mutant (SDM) virus stocks, MT4 cells were subcultured at a density of 250,000 cells/ml on the day before transfection. Cells were pelleted and resuspended in phosphate-buffered saline at a concentration of 3.1×10^6 cells/ml. A 0.8-ml portion ([…]) was used for each transfection. Transfections were performed with a Bio-Rad Gene Pulser (Bio-Rad, Hercules, Calif.) with 0.4-cm electrode cuvettes (Bio-Rad). Cells were electroporated with 10 μg of SalI-linearized pUC19-3′HXB2D (SalI-XbaI fragment of pHXB2D) and 5 μg of SalI-digested SDM at 250 μF and 300 V, followed by a 30-min incubation at room temperature. Ten ml of fresh culture medium was then added to the suspension of transfected cells, and incubation was performed at 37° C. in a humidified atmosphere with 5% CO2. Cell cultures were monitored for the appearance of cytopathic effect (CPE).
(§3) The inhibitory antiviral activity of different compounds was determined in a cell-based HIV-1 replication assay. MT4-LTR-EGFP cells (150,000 cells/ml) were infected with HIV-1 (IIIB or SDM strains Q148R, N155H, or G140S-Q148H; multiplicity of infection [MOI] of 0.0025) in the presence or absence of inhibitor. After 3 days of incubation, the inhibition of HIV replication was quantified by measuring EGFP fluorescence, and expressed as the compound concentration required for 50% inhibition of HIV-1 replication in cell culture (EC50).

[1] = tested on: HIV-1 SDM strain G140S-Q148H; assay: cell-based HIV-1 replication assay in MT4-LTR-EGFP cells, G140S-Q148H mutant; conditions: fold change in activity against G140S-Q148H mutant compared to wild type HIV
Excerpt: as §1, §2, §3

[2] = tested on: cryopreserved hepatocytes of human subjects; assay: metabolic stability in human hepatocytes; type: in vitro ADME; conditions: 1 μM, percentage turnover; for Human (% TO) 15 min: 15 min incubation; for Human (% TO) 60 min: 60 min incubation
Description: (§4) For determining in vitro metabolic stability, cryopreserved hepatocytes from Sprague Dawley rats and of human subjects (pool of male and female) were obtained from an external supplier (Cellz Direct Inc., Paisly, UK). Tested compounds were dissolved in DMSO and this stock solution was used to spike rat and human hepatocyte cell cultures (10^6 cells/ml) at a final concentration of 1 μM (final percentage of DMSO was 0.02% (v/v)). Incubations were performed for up to 60 min at approximately 37° C. and terminated by the addition of two volumes of DMSO. Samples were then centrifuged and aliquots of the supernatant analyzed using liquid chromatography (LC) with electrospray mass spectrometric detection (MS/MS) to monitor the disappearance of parent compound by single reaction monitoring (SRM) and reverse-phase chromotatography with a gradient of acetonitrile and water containing 0.1% (v/v) formic acid. Based on peak area, the percentage of parent compound remaining after 15 and 60 min incubation was calculated and the results, expressed as percentage turnover (TO) relative to time zero controls.

HIV-1 SDM strain Q148R = assay: cell-based HIV-1 replication assay in MT4-LTR-EGFP cells, Q148R mutant; conditions: fold change in activity against Q148R mutant compared to wild type HIV
Excerpt: as §1, §2, §3

[3] = pharmacokinetic evaluation in the rat; type: in vivo, male Sprague-Dawley rats; conditions: intravenous bolus 2 mg/kg; for CLp: plasma clearance; for t1/2: terminal phase elimination half-life; for Vss: volume of distribution at steady-state
Description: For determining the pharmacokinetic properties in rat, each HIV integrase inhibitor was dissolved in PEG400/normal saline (70:30 (v/v)) at a nominal concentration of 1 mg/ml and administered (2 ml/kg) to male Sprague-Dawley rats (n=3 per test compound) as an intravenous bolus via a saphenous vein at a dose level of 2 mg/kg. […] Plasma was obtained by centrifugation and stored at −20° C. prior to analysis. Analysis was performed using liquid chromatography (LC) with tandem mass spectrometric detection (MS/MS) in positive ion mode. Each HIV integrase inhibitor was eluted from a reversed-phase column with a gradient of acetonitrile and water containing 0.1% (v/v) formic acid. At the time of analysis plasma samples (50 p. 1) were thawed and […] with 200 μl of acetonitrile containing 0.1% (v/v) formic acid and centrifuged. Aliquots of the supernatant (100 μl) were diluted with 200 μl of water containing 25% (v/v) methanol and 0.1% (v/v) formic acid and injected via an electrospray interface directly into the Mass Spectrometer. Calibration standards and quality controls were prepared in rat plasma at the same time as the samples and analyzed before and after the samples containing HIV integrase inhibitor. Non-compartmental pharmacokinetic analysis of the plasma concentration-time curves was performed using WinNonLin software to provide estimates of the plasma clearance (CLp), volume of distribution at steady-state (Vss) and terminal phase elimination half-life (t1/2).

[4] = tested on: cryopreserved hepatocytes from Sprague Dawley rats; assay: metabolic stability in rat hepatocytes; type: in vitro ADME; conditions: 1 μM, percentage turnover; for Rat (% TO) 15 min: 15 min incubation; for Rat (% TO) 60 min: 60 min incubation
Description: as §4

HIV-1 LAI (IIIB) = assay: antiviral assay in the presence of 50% human serum; type: cell-based; conditions: MT-4-LTR-EGFP cells, 4 days, resazurin cell viability
Description: For the antiviral assay in the presence of 50% human serum, MT-4-LTR-EGFP cells were infected with HIV-1 LAI (IIIB) at a MOI of 0.001 to 0.01 CCID50/cell in RPMI1640 medium. Following 1 h of incubation, cells were washed and plated into a 96-well plate containing serial dilutions of test compound in the presence of 10% fetal calf serum or 50% human serum. After 4 days of incubation, the EC50 in the presence of 50% human serum (EC50/HS) was determined by a cell viability assay using resazurin (as described by Fields, R. D., and M. V. Lancaster (1993) Am. Biotechnol. Lab. 11:48-50).

SMILES | FC-N155H (HIV-1 SDM strain N155H) | FC-G140S-Q148H [1] | Human (% TO) 15 min [2] [% TO] | Human (% TO) 60 min [2] [% TO] | FC-Q148R (HIV-1 SDM strain Q148R) | CLp [3] [mL/min/kg] | t1/2 [3] [h] | Vss [3] [L/kg] | Rat (% TO) 15 min [4] [% TO] | Rat (% TO) 60 min [4] [% TO] | EC50 (HIV-1 LAI (IIIB)) [nM]
CCN1C[C@H](C)n2c(c(O)c3c(=O)n4nc(c32)N(C)S(=O)(=O)CCCCCOc2cc(F)ccc2C4)C1=O [Compound 5] | 2.4 | 1.2 | 12 | 38 | 0.5 | 8 | 4.9 | 1.5 | 15 | 20 | 16
CC(C)N1C[C@H](C)n2c(c(O)c3c(=O)n4nc(c32)N(C)S(=O)(=O)CCCCOc2cc(F)ccc2C4)C1=O [Compound 6] | 3.2 | 1.7 | 23 | 36 | 0.7 | 5 | 5.5 | 0.7 | 20 | 33 | 5
CC(C)N1C[C@H](C)n2c(c(O)c3c(=O)n4nc(c32)N(C)S(=O)(=O)CCCCCOc2cc(F)ccc2C4)C1=O [Compound 7] | 2.2 | 1.0 | 2 | 12 | 0.4 | 7 | 4.8 | 0.9 | 21 | 31 | 12
CCN1C[C@H](C)n2c(c(O)c3c(=O)n4nc(c32)N(C)S(=O)(=O)CCCCNC(=O)c2cc(F)ccc2C4)C1=O [Compound 22] | 6.0 | 1.7 | – | – | 0.5 | 12 | – | 0.6 | – | – | 14
CCN1C[C@H](C)n2c(c(O)c3c(=O)n4nc(c32)C(=O)N(C)CCCCCOc2cc(F)ccc2C4)C1=O [Compound 31] | 4.6 | 7.0 | – | – | 0.6 | 13 | 8.1 | 6 | – | – | 21
CCN1CCCCCOc2cc(F)c(Cl)cc2Cn2nc(c3c(c(O)c4n3[C@@H](C)CN(CC)C4=O)c2=O)C1=O [Compound 33] | 5.1 | 2.5 | – | – | 0.5 | 11 | 4.2 | 1.3 | – | – | 147
CCN1C[C@H](C)n2c(c(O)c3c(=O)n4nc(c32)NCCCCCNC(=O)c2cc(F)ccc2C4)C1=O [Compound 40] | 6.2 | 3.1 | – | – | 0.4 | – | – | – | – | – | 1100
CCN1C[C@H](C)n2c(c(O)c3c(=O)n4nc(c32)NCCCCCCNC(=O)c2cc(F)ccc2C4)C1=O [Compound 41] | 6.0 | 2.8 | – | – | 0.4 | 7 | 5.4 | 0.7 | – | – | 1110
